Source: patent US8952204B2, “Sulfonium salt, method for producing the same, and photoacid generator” (DSP Gokyo Food & Chemical Co., Ltd., priority 2012, dated 2015)

Assays:
[1] = Measurement of ultraviolet-visible absorption spectrum (molecular extinction coefficient at 365 nm); assay type: physicochemical; conditions: 1×10^−4 mol/L acetonitrile solution; 50 to 2000 evaluated as desirable
Method: (Measurement of Ultraviolet-Visible Absorption Spectrum)
A 1×10^−4 mol/L acetonitrile solution of each test compound was prepared, and the molecular extinction coefficient at 365 nm in the ultraviolet-visible absorption spectrum was measured using an ultraviolet-visible spectrophotometer (UV-2400PC, manufactured by SHIMADZU CORPORATION). […] Considering that light should be transmitted to a deep portion in a thick film, compounds with a molecular extinction coefficient at 365 nm (i-line) of 50 to 2000 were evaluated as a compound having desirable properties.

[2] = Solubility in PGMEA (amount of PGMEA necessary for dissolving 100 mg test compound); assay type: physicochemical; conditions: 20±5° C., after 30 minutes, 16 mL or less evaluated as desirable
Method: To the sulfonium salt compound to be measured (test compound; 100 mg each) was added PGMEA, and a strong shaking for 30 seconds was repeated at 20±5° C. every 5 minutes. In this way, the amount of PGMEA necessary for dissolving the test compound after 30 minutes was measured. Here, “dissolving” means to reach the state where no insoluble matter can be observed by visual inspection, specifically, means that the resultant solution is clear, or a mixture in an arbitrary ratio becomes transparent.
In Table 1 below, the compounds that require PGMEA in an amount of 16 mL or less were evaluated as having desirable properties as a current target compound.

| SMILES | Molecular Extinction Coefficient (365 nm) [1] | PGMEA (mL): amount of PGMEA necessary for dissolving test compound [2] [mL] |
| --- | --- | --- |
| CC1(C)[C@@H]2CC[C@@]1(CS(=O)(=O)[O-])C(=O)C2.c1ccc([S+](c2ccccc2)c2ccccc2)cc1 [Comparative Example Compound 1, triphenylsulfonium (1S,4R)-7,7-dimethyl-2-oxobicyclo[2.2.1]heptane-1-yl methanesulfonate] | 0 | >160 |
| CC1(C)[C@@H]2CC[C@@]1(CS(=O)(=O)[O-])C(=O)C2.CCCCOc1ccc2ccc(OCCCC)c([S+](CCCC)CCCC)c2c1 [Example Compound 1, 1-(2,7-di-n-butoxynaphthyl)di-n-butyl sulfonium (1S,4R)-7,7-dimethyl-2-oxobicyclo[2.2.1]heptane-1-yl methanesulfonate] | 640 | 11 |
